In ChEMBL document CHEMBL1201862, “PubChem BioAssay data set” (2004):
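Method: 48-hour compound exposure of cells in 96-well plates, five concentrations, linear interpolation of endpoints. The concentration for 50% growth inhibition is given as GI50.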 Calls of active or inactive are those of the source. No stated cut-off is given here; in the data, active = GI50 up to about 1.1 µM and inactive = higher.

Experiments:
Test in all cases: DTP human tumour cell line panel, 48 h
786-0 = test system: 786-0
A498 = test system: A498
A549 = test system: A549
ACHN = test system: ACHN
CAKI-1 = test system: CAKI-1
CCRF-CEM = test system: CCRF-CEM
COLO 205 = test system: COLO 205
DLD-1 = test system: DLD-1
DMS-114 = test system: DMS-114
DMS-273 = test system: DMS-273
HCC 2998 = test system: HCC 2998
HCT-116 = test system: HCT-116
HCT-15 = test system: HCT-15
HL-60 = test system: HL-60
HOP-18 = test system: HOP-18
HOP-62 = test system: HOP-62
IGROV-1 = test system: IGROV-1
K562 = test system: K562
KM-20L2 = test system: KM-20L2
KM12 = test system: KM12
LXFL 529 = test system: LXFL 529
M14 = test system: M14
MOLT-4 = test system: MOLT-4
Malme-3M = test system: Malme-3M
NCI-H226 = test system: NCI-H226
NCI-H460 = test system: NCI-H460
NCI-H522 = test system: NCI-H522
OVCAR-3 = test system: OVCAR-3
OVCAR-4 = test system: OVCAR-4
OVCAR-8 = test system: OVCAR-8
RPMI-8226 = test system: RPMI-8226
RXF 393 = test system: RXF 393
SF-268 = test system: SF-268
SF-539 = test system: SF-539
SK-MEL-28 = test system: SK-MEL-28
SK-MEL-2 = test system: SK-MEL-2
SK-MEL-5 = test system: SK-MEL-5
SK-OV-3 = test system: SK-OV-3
SN12C = test system: SN12C
SNB-19 = test system: SNB-19
SNB-75 = test system: SNB-75
SNB-78 = test system: SNB-78
SR = test system: SR
SW-620 = test system: SW-620
TK-10 = test system: TK-10
U-251 = test system: U-251
UACC-257 = test system: UACC-257
UACC-62 = test system: UACC-62
UO-31 = test system: UO-31
EKVX = test system: EKVX
HOP-92 = test system: HOP-92
HT-29 = test system: HT-29
M19-MEL = test system: M19-MEL
NCI-H23 = test system: NCI-H23
OVCAR-5 = test system: OVCAR-5
SF-295 = test system: SF-295
BT-549 = test system: BT-549
DU-145 = test system: DU-145
Hs-578T = test system: Hs-578T
LOX IMVI = test system: LOX IMVI
MCF7 = test system: MCF7
MDA-MB-231 = test system: MDA-MB-231
MDA-MB-435 = test system: MDA-MB-435
MDA-N = test system: MDA-N
NCI/ADR-RES = test system: NCI/ADR-RES
PC-3 = test system: PC-3
T47D = test system: T47D

Measured: GI50

CN(C)c1n/c(=N/c2ccc3ccccc3c2)ss1
17.3 µM: HCT-15
inactive: 786-0 37.6 µM | A498 30.6 µM | A549 12.2 µM | ACHN 20.6 µM | CAKI-1 5.87 µM | CCRF-CEM 7.05 µM | COLO 205 11.2 µM | DLD-1 15.4 µM | DMS-114 9.06 µM | DMS-273 > 10 µM | HCC 2998 33.7 µM | HCT-116 13.8 µM | HL-60 16.1 µM | HOP-18 25.3 µM | HOP-62 41.8 µM | IGROV-1 19 µM | K562 15.1 µM | KM-20L2 29.6 µM | KM12 15.6 µM | LXFL 529 9.1 µM | M14 24 µM | MOLT-4 4.45 µM | Malme-3M 24.4 µM | NCI-H226 13.4 µM | NCI-H460 5.75 µM | NCI-H522 7.41 µM | OVCAR-3 12.2 µM | OVCAR-4 17.5 µM | OVCAR-8 19.5 µM | RPMI-8226 6.9 µM | RXF 393 41.9 µM | SF-268 33.7 µM | SF-539 78.9 µM | SK-MEL-28 34.8 µM | SK-MEL-2 21.3 µM | SK-MEL-5 11.1 µM | SK-OV-3 77.1 µM | SN12C 32.9 µM | SNB-19 32 µM | SNB-75 20.8 µM | SNB-78 42.6 µM | SR 11.6 µM | SW-620 45.3 µM | TK-10 14.1 µM | U-251 6.22 µM | UACC-257 16.5 µM | UACC-62 21.5 µM | UO-31 23.4 µM

CCc1cccc(C)c1NC(=O)CCc1n[nH]c(=S)o1
55.1 µM: HCT-15
inactive: 786-0 > 100 µM | A498 > 100 µM | ACHN > 100 µM | CAKI-1 > 100 µM | CCRF-CEM > 100 µM | COLO 205 44.6 µM | DLD-1 44.4 µM | DMS-273 37.8 µM | EKVX > 100 µM | HCC 2998 > 100 µM | HCT-116 16.1 µM | HL-60 > 100 µM | HOP-18 > 100 µM | HOP-62 > 100 µM | HOP-92 > 100 µM | HT-29 95.5 µM | IGROV-1 > 100 µM | K562 66.8 µM | KM-20L2 > 100 µM | KM12 > 100 µM | LXFL 529 > 100 µM | M14 > 100 µM | M19-MEL > 100 µM | MOLT-4 > 100 µM | Malme-3M > 100 µM | NCI-H226 > 100 µM | NCI-H23 > 100 µM | NCI-H460 > 100 µM | NCI-H522 > 100 µM | OVCAR-3 > 100 µM | OVCAR-4 > 100 µM | OVCAR-5 > 100 µM | OVCAR-8 > 100 µM | RPMI-8226 21.6 µM | SF-268 > 100 µM | SF-295 > 100 µM | SF-539 > 100 µM | SK-MEL-28 > 100 µM | SK-MEL-5 > 100 µM | SK-OV-3 > 100 µM | SN12C > 100 µM | SNB-19 > 100 µM | SNB-75 > 100 µM | SNB-78 > 100 µM | SW-620 13.3 µM | TK-10 > 100 µM | U-251 > 100 µM | UACC-257 > 100 µM | UACC-62 > 100 µM | UO-31 > 100 µM

CCCC(=O)Nc1cc(/C=C/C(=O)N2C[C@@H]3C[C@]34C2=CC(=O)c2[nH]cc(C)c24)n(C)c1
0.723 µM: HCT-15
active: 786-0 0.0757 µM | A498 0.236 µM | A549 0.318 µM | ACHN 0.0689 µM | BT-549 0.29 µM | CAKI-1 0.1 µM | CCRF-CEM 0.0321 µM | COLO 205 0.293 µM | DU-145 0.0673 µM | EKVX 0.644 µM | HCC 2998 0.0931 µM | HCT-116 0.0841 µM | HL-60 0.0471 µM | HOP-62 0.769 µM | HOP-92 0.372 µM | HT-29 0.208 µM | Hs-578T 0.668 µM | IGROV-1 0.329 µM | K562 0.0661 µM | KM12 0.653 µM | LOX IMVI 0.0733 µM | M14 0.297 µM | MCF7 0.0596 µM | MDA-MB-231 0.38 µM | MDA-MB-435 0.285 µM | MDA-N 0.361 µM | MOLT-4 0.0257 µM | Malme-3M 0.0746 µM | NCI-H226 0.313 µM | NCI-H23 0.0927 µM | NCI-H460 0.221 µM | NCI-H522 0.0432 µM | NCI/ADR-RES 0.778 µM | OVCAR-3 0.429 µM | OVCAR-4 0.256 µM | OVCAR-5 1.05 µM | OVCAR-8 0.0533 µM | PC-3 0.259 µM | RPMI-8226 0.675 µM | RXF 393 0.0711 µM | SF-268 0.083 µM | SF-295 0.453 µM | SF-539 0.166 µM | SK-MEL-28 0.408 µM | SK-MEL-2 0.261 µM | SK-MEL-5 0.0748 µM | SK-OV-3 0.975 µM | SN12C 0.47 µM | SNB-19 0.745 µM | SNB-75 0.345 µM | SR 0.0149 µM | SW-620 0.0706 µM | T47D 0.0867 µM | TK-10 0.495 µM | U-251 0.0702 µM | UACC-257 0.098 µM | UACC-62 0.0682 µM | UO-31 0.473 µM

CC[C@]1(O)CC(OC2CC(N(C)C)C(O)C(C)O2)c2c(cc3c(c2O)C(=O)c2c(O)cccc2C3=O)[C@@H]1C(=O)OC (some centres not stated)
active: 786-0 0.205 µM | A498 0.232 µM | A549 0.136 µM | ACHN 0.0537 µM | CAKI-1 0.0466 µM | CCRF-CEM 0.117 µM | COLO 205 0.0881 µM | DU-145 0.675 µM | EKVX 0.493 µM | HCC 2998 0.21 µM | HCT-116 0.0455 µM | HL-60 0.249 µM | HOP-62 0.146 µM | HOP-92 0.22 µM | HT-29 0.107 µM | Hs-578T 0.745 µM | IGROV-1 0.119 µM | K562 0.0733 µM | KM12 0.225 µM | LOX IMVI 0.0859 µM | M14 0.468 µM | MCF7 0.292 µM | MDA-MB-231 0.351 µM | MDA-MB-435 0.291 µM | MDA-N 0.384 µM | MOLT-4 0.0405 µM | Malme-3M 0.245 µM | NCI-H226 0.243 µM | NCI-H23 0.272 µM | NCI-H460 0.045 µM | NCI-H522 0.108 µM | NCI/ADR-RES 0.269 µM | OVCAR-3 0.493 µM | OVCAR-4 0.114 µM | OVCAR-5 0.718 µM | OVCAR-8 0.0743 µM | PC-3 0.214 µM | RPMI-8226 0.125 µM | RXF 393 0.269 µM | SF-268 0.12 µM | SF-295 0.195 µM | SF-539 0.59 µM | SK-MEL-28 0.664 µM | SK-MEL-2 0.381 µM | SK-MEL-5 0.192 µM | SK-OV-3 0.333 µM | SN12C 0.178 µM | SNB-19 0.328 µM | SNB-75 0.201 µM | SR 0.0538 µM | SW-620 0.0392 µM | T47D 0.649 µM | TK-10 0.472 µM | U-251 0.151 µM | UACC-257 0.347 µM | UACC-62 0.196 µM | UO-31 0.173 µM
inactive: BT-549 1.16 µM
0.244 µM: HCT-15

CC(C)OC(=O)c1ccc(CCC2=CC(=O)C(Br)=CC2=O)cc1
inactive: 786-0 16.5 µM | A498 35.9 µM | A549 34.7 µM | ACHN 14.5 µM | BT-549 5.27 µM | CAKI-1 20.6 µM | COLO 205 11.9 µM | DU-145 23.7 µM | EKVX 16.3 µM | HCC 2998 16.9 µM | HCT-116 16.7 µM | HL-60 2.16 µM | HOP-62 29.6 µM | HOP-92 12.4 µM | HT-29 16.8 µM | Hs-578T 15.7 µM | IGROV-1 14.4 µM | K562 2.84 µM | KM12 13 µM | LOX IMVI 15.9 µM | M14 16.4 µM | MCF7 17.7 µM | MDA-MB-231 17.2 µM | MDA-MB-435 16.9 µM | MDA-N 16.4 µM | MOLT-4 3.09 µM | Malme-3M 15.7 µM | NCI-H226 19.8 µM | NCI-H23 13.2 µM | NCI-H460 20.7 µM | NCI-H522 5.56 µM | NCI/ADR-RES 14.5 µM | OVCAR-3 14.8 µM | OVCAR-4 5.75 µM | OVCAR-5 22.1 µM | OVCAR-8 15.3 µM | PC-3 17 µM | RPMI-8226 7.26 µM | RXF 393 17.1 µM | SF-268 16 µM | SF-295 19.9 µM | SF-539 19.2 µM | SK-MEL-28 18.2 µM | SK-MEL-2 15.6 µM | SK-MEL-5 12.8 µM | SK-OV-3 40.6 µM | SN12C 16.9 µM | SNB-19 15.3 µM | SNB-75 16.1 µM | SR 3.82 µM | SW-620 15.5 µM | T47D 19.6 µM | TK-10 19.7 µM | U-251 15.6 µM | UACC-257 13.2 µM | UACC-62 17.5 µM | UO-31 13.8 µM
active: CCRF-CEM 0.783 µM
15.4 µM: HCT-15
